# Measurements published in patent US12064453B2, “Biochemical and biomechanical conditioning for enhancing personalized mesenchymal stem cell therapies” (BOARD OF REGENTS, THE UNIVERSITY OF TEXAS SYSTEM, priority 2017, dated 2024).
# Columns and labels:
# [1] = test system: Human mesenchymal stem cells (hMSCs); assay: Long term conditioning of hMSCs with biochemical factors and mechanical load, immunostaining; assay type: cell-based; details: seven days; for paxillin levels: with and without load (0.1 Hz, 7.5% strain, 4 hours daily); for endothelial marker vWF: in combination with mechanical loading
# Description: Human mesenchymal stem cells (hMSCs; Millipore) were cultured in low glucose DMEM medium supplemented with 15% fetal bovine serum, L-glutamine, and penicillin/streptomycin. Following trypsinization, cells were seeded on the membranes at 4,000 cells per cm^2 before mechanical loading. Immunocytochemical staining. Cells were fixed in 4% paraformaldehyde in PBS for 10 min followed by washing and permeabilization with 0.1% Triton X-100 PBS for 5 min. Next, samples were blocked with 1% BSA 5% FBS in PBS for 40 min. After washing, cells were incubated with primary antibodies (Table 1) overnight at 4° C. The next day, samples were washed in 1% BSA in PBS and was incubated with secondary antibodies and DAPI staining for 2 hours in a light protected environment. For actin staining, an alternative step was used in which samples were treated with Alexa 594 conjugated phalloidin for 30 min. Cells were washed thoroughly before they were imaged. For standard fluorescent microscopy, Zeiss Observerl was used. […] Long term conditioning of hMSCs using biochemical factors. For long term loading, cells were exposed to media containing small biomolecules (Table 3). They were loaded for 4 hours every day for 7 days under sine and brachial waveform at 0.1 Hz and 7.5% maximum strain and compared against those in static culture. Media containing the biomolecules were replaced on day 3 and day 5, with the exception of 5-Aza containing media. Due to the cytotoxic nature of 5-Aza, it was replaced with normal media on day 1. On day 6, media was replaced with 0.5% FBS containing media post loading. Following long term loading on day 7, the condition media was collected and further assays were performed on the cells. To examine the ability of long term application of mechanical loading in conditioning MSCs, the cells were treated with treatments known to cause differentiation into vascular/cardiovascular phenotypes including 5-azacitidine (5-aza), Dexamethasone with insulin (Dex+Ins), PDGF-BB, hydrocortisone (Hydrocort), EGF, VEGF-A, and TGF-β1.
# [2] = test system: Smad2/3; assay: Smad transcription factor activity, multi-strain mechanical loading; assay type: cell-based, human; details: MSCs; 0.1 Hz, 7.5% strain, 24 hours, co-treatment
# Description: Transcription factor activity assay.
# To perform a high throughput assay of the dependence of magnitude of mechanical strain on the activation of Smad2/3, the heights of the individual pistons were adjusted to apply mechanical strains over a range of 0 to 17.5% strain, in increments of 2.5% strain (FIGS. 2B-D). […] The regulation of differentiation-related pathways in MSCs was examined by loading the cells for 24 hours under multi-strain conditions at 0.1 Hz and performing immunostaining. A maximal increase in nuclear to cytoplasmic Yap/Taz was found at 7.5% strain and maximal nuclear localization of Smad2/3 at 10-12.5% strain (FIG. 2F). In addition, there was a maximal increase in α-SMA expression in the range of strains from 7.5-12.5% strain (FIG. 2G). At 10-15% strain, there was a maximal increase in polymerized actin and paxillin (FIG. 2G). The mechanical loading was repeated at 7.5% strain with 0.1 Hz frequency using both sine and brachial waveforms and then performed western blotting. With brachial waveform loading, increases in PECAM-1 expression were found and as well as a reduction in α-SMA expression and an increase in p-Smad 2/3 (FIGS. 2H, I). Overall, these studies support maximal activation of Smad signaling in MSCs with 0.1 Hz of loading at 7.5% strain, with an increase in endothelial-like phenotype with brachial loading.
# [3] = test system: Human mesenchymal stem cells (hMSCs); assay: Oil Red O or Alizarin Red staining for adipogenic and osteogenic differentiation; assay type: cell-based
# Description: Long term conditioning of hMSCs using biochemical factors. For long term loading, cells were exposed to media containing small biomolecules (Table 3). They were loaded for 4 hours every day for 7 days under sine and brachial waveform at 0.1 Hz and 7.5% maximum strain and compared against those in static culture. Media containing the biomolecules were replaced on day 3 and day 5, with the exception of 5-Aza containing media. Due to the cytotoxic nature of 5-Aza, it was replaced with normal media on day 1. On day 6, media was replaced with 0.5% FBS containing media post loading. Following long term loading on day 7, the condition media was collected and further assays were performed on the cells. […] To test for adipogenic and osteogenic differentiation, the cells were also stained using Oil Red O or Alizarin Red dye.
# [4] = test system: Human mesenchymal stem cells (hMSCs); details: long term conditioning
# Description: Fluorescence Activated Cell Sorting (FACS). After long term loading, the cells were then detached from the loading plate using accutase (Sigma) and was labeled with fluorescent antibodies according the BD Bioscience FACS staining kit (BD 562725) for cardiovascular phenotypes such as endothelial, smooth muscle, and pericyte phenotypes. […] Fortessa of UT Austin Core Facility was used to measure population fluorescent signals.
# To address these issues, a combinatorial set of mechanical loading and biochemical or pharmacological treatments were applied to MSCs and the phenotype assessed using multiple markers using FACS (FIG. 5A).
# [5] = test system: TCF/LEF; details: MSCs; loading at 0.1 Hz with VEGF treatment; 10 ng/ml; 8 hours
# Description: (§1) Transcription factor activity assay. The cells were transduced with luminescent reporter vectors for target transcription factors. Briefly, for each target transcription factor, freshly passaged hMSCs were treated with luciferase reporter expressing lentiviruses (Qiagen). For the drug screening assay, hMSCs were treated with biomolecules in the kinase inhibitor library (Millipore Calbiochem) 1 hour prior to loading. After mechanical loading, the cells were lysed and the relative luminescent signal was measured using the luciferase assay kit (Promega) with FlexStation-3 plate reader (Molecular Devices). For each plate, average from three individual readings was reported.
# (§2) A major limitation of previous studies in mechanobiology is the limited ability to investigate a variety of conditions simultaneously. This gap in capability leads to an incomplete exploration of the range of mechanical conditions and greatly reduces the ability to examine synergy between applied mechanical forces and biochemical signals. Mesenchymal stem cells were transduced with lentiviruses expressing luciferase reporter constructs for transcription factors including FOXO, TCF/LEF, Smad2/3 and SRE and selected these to obtain a stable reporter cell line. […]
# [6] = test system: FOXO; details: MSCs; VEGF at 2 Hz frequency of loading (5% maximal strain) or at 1 Hz; 10 ng/ml; 8 hours
# Description: as §1, §2
Molecule,PECAM-1 ([1]; in combination with mechanical load),paxillin levels [1],endothelial marker vWF [1],"nuclear localization of Yap/Taz ([1]; with mechanical loading, in comparison to other treatment groups)",Smad transcription factor activity [2],Osteogenesis (Alizarin Red) ([3]; static conditions),Osteogenesis (Alizarin Red) ([3]; with mechanical loading),endothelial lineage defined by the FACS protocol [4],TCF/LEF transcription factor activity [5],FOXO transcription factor activity [6]
"Nc1ncn([C@@H]2O[C@H](CO)[C@@H](O)[C@H]2O)c(=O)n1 [5-aza, 5-Azacytidine]",increased,increased paxillin levels,–,–,–,–,–,–,–,–
"EGF [growth factor, Sigma-Aldrich E9644, 10 ng/mL]",–,increased paxillin levels,to a lesser extent,–,–,–,–,–,–,–
TGF-β1,–,not increased,–,markedly reduced,optimal synergistic activation,observed,did not occur,–,–,–
VEGF,–,increased paxillin levels,to a lesser extent,–,–,–,–,did not increase,synergistically activated,reduction in FOXO activity
